Experimental data reported in patent US11254722B2, “Recombinant proteins and uses thereof” (ACADEMIA SINICA, priority 2017, dated 2022).

Tests used:
[1] = test system: MCF-7 breast cancer cells; test: MCF-7 proliferation assay; type: cell-based
Procedure, shortened: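 MCF-7 cells seeded at 1,000–6,000/well in serum-free DMEM/F12 with 0.2% BSA and 10 ug/ml transferrin; proliferation induced by growth factors (IGF-1, IGF-2, EGF, TGF-a, Nrgbx, b-FGF, amphiregulin); test chimeras added at plating or 16–20 h later. Growth read after 3–4 days by Alamar blue fluorescence (544/590 nm, 4–6 h).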

[2] = test system: 3t3; test: 3t3 proliferation assay; type: cell-based; conditions: PDGF-AB-induced
Method: MCF-7 cells (a breast cancer cell line) were maintained in MEM (GIBCO) plus insulin and NEAA and 10% FBS (Hyclone).
(§1) For the proliferation assay, cells except for HUVEC were seeded at a density of 1,000 to 6,000 in 96 wells in an assay buffer of DMEM/F12 plus 0.2% BSA and 10 ug/ml transferrin. Chemical inhibitors were added after 16-20 hours after plating; IGF-1 or other growth factors or test chimeras in assay buffer were added at the time of plating or 16-20 hours after plating. 5,000 HUVEC ells were plated in poly-L-lysine coated 96 wells in M199 with 1%/FBS and HEPES. After 3 to 4 days of culture, growth was determined by incubating cells with Alamar blue for 4 to 6 hours and then the fluorescence (RFU) at 544/590 nm was read. For long term proliferation assays, cells were plated in the growth media with 5% or 10% FBS at densities of 500 to 10,000 cells per cm^2 growth area and grown for 7 to 21 days. Inhibitors and effectors were added 1-4 days after plating. Cells were exposed to cisplatin or gemcitabine for two days. Medium was renewed twice weekly. At completion, cells were fixed and then stained with Giemsa.

[3] = test system: cancer cells; test: In vitro proliferation of cancer cells stimulated by growth factors (Table 8); type: cell-based
Method: as §1
The BP3-fc construct inhibited the proliferation of cancer cells that had been stimulated by IGF-1, IGF-2, neuregulin, HGF, and bFGF.

[4] = Pharmacokinetics in mice, serum by Fc ELISA; type: in vivo
Method: Grenier high binding ELISA plates were coated with 1 ug/ml goat anti-human Fc antibody (Jackson Immunoresearch) in PBS overnight, and then blocked with Assay Buffer (Invitrogen). Plates were incubated for 2 hours with Chimera or human Fc (Jackson Immunoresearch) as standard; followed by HRP-conjugated anti-human Fc antibody (Jackson Immunoresearch) for 60 minutes. HRP substrate, tetramethyl benzidine, was added; the reaction was stopped with 2 N […], and then the plate was read at 450 nm.
Mice were injected subcutaneously with 100 ug chimera 56662 (4 mg/kg). Two mice per group were used. Serum samples were taken at 0, 4, 24, 48, 72 hours after injection. The concentration of 56662 in serum was determined by use of the hu fc ELISA.
Serum half-life was measured in mice. 100 μg IGFBP3-Fc or 56662 (4 mg/kg) was injected subcutaneously and mouse serum was harvested at 0, 4, 24, 48, 72 hours after injection. Chimera concentration in serum was measured with the Fc ELISA. At 24 hours, the concentration of 56662 was over 2 μg/ml (FIG. 28), and the serum half-time was estimated to be about 43 hours.

56662: IGFBP3-Fc, SEQ ID NO: 7; unmodified IGFBP3 fused with the IgG Fc portion [compound 56662]
In vitro inhibition of proliferation, EGF ([1]; EGF-induced, MCF-7 cells): yes
In vitro inhibition of proliferation, IGF-1 ([1]; IGF-1-induced, MCF-7 cells): yes
In vitro inhibition of proliferation, IGF-2 ([1]; IGF-2-induced, MCF-7 cells): yes
In vitro inhibition of proliferation, TGF-α ([1]; TGF-α-induced, MCF-7 cells): yes
In vitro inhibition of proliferation, VEGF-165 ([1]; VEGF-165, MCF-7 cells per footnote): no
In vitro inhibition of proliferation, bFGF ([1]; bFGF-induced, MCF-7 cells): yes
inhibition of FBS-induced proliferation of MCF-7 ([1]; fetal bovine serum, FIG. 1, FIG. 4): inhibited
inhibition of proliferation induced by long-R3-IGF-1 ([1]; high concentrations of 56662, FIG. 2): can inhibit
In vitro inhibition of proliferation, neuregulin ([1]; neuregulin-induced, MCF-7 cells): yes
In vitro inhibition of proliferation, PDGF-AB [2]: yes (3t3)
inhibition of proliferation stimulated by bFGF [3]: inh
serum half-life ([4]; estimated): 20 to 40 h
concentration in serum at 24 hours ([4]; mice, 100 μg (4 mg/kg) subcutaneously, FIG. 28): over 2 μg/ml
serum half-time ([4]; mice, 100 μg (4 mg/kg) subcutaneously, estimated): about 43 hours
